# Assay results published in patent US4590199A, “Antihistaminic 2-(amino ethylamino) pyridines” (priority 1983, dated 1986).
# Columns and labels:
# [1] = molecular target: T1, histamine response of longitudinal muscle isolated from the intact ileum of guinea-pigs (Cavia porcellus, UniProt P31389); assay: In vitro antihistaminic activity (histamine concentration-response curves, Schild plot); assay type: cell-based, guinea-pig (Hartley, male); conditions: for Kb: guinea-pig ileum longitudinal muscle, one hour incubation with test compound, Schild plot, read-out: pA2 (converted); for antihistamine activity (in words): of the compounds of formula (I)
# T1 construct: The longitudinal muscle was isolated from the intact ileum of guinea-pigs; from tissue; host or cells: longitudinal muscle of guinea-pig ileum (Hartley, male)
# T1 sequence (P31389 whole entry): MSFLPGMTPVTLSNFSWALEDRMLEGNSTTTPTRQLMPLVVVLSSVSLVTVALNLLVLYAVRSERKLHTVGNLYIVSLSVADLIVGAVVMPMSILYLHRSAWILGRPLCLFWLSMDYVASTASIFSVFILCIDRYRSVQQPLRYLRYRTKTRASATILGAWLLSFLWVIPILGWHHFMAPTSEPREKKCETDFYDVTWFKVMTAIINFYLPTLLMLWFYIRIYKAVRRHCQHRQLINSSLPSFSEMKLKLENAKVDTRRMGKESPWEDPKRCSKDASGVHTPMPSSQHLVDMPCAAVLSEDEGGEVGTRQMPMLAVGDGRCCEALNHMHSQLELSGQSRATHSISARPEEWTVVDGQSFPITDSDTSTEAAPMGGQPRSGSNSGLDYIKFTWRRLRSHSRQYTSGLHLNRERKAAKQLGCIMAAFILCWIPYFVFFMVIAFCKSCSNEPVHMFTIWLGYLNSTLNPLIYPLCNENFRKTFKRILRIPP
# Experimental: In vitro antihistaminic activity: The longitudinal muscle was isolated from the intact ileum of guinea-pigs (Hartley, male 250-400 g) and placed in an organ bath under 300 mg tension. After one hour of equilibration, cumulative concentration-response curves (Van Rossum, J. M., Arch. Int. Pharmacodyn. Ther. 143, 299-330, 1963) to histamine were obtained. Following washing, the tissues were incubated for one hour with the test compound and then a second histamine concentration-response curve was run. Shifts to the right of the agonist concentration-response curve produced by the antagonists were used to construct Schild plots (Arunlakshana, O. and Schild, H. O., Br. J. Pharmacol: 14, 48-58, 1959). Regression of Log (dr-1) on Log [B], where dr is an equiactive response in the presence and absence of antagonist and [B] is the molar concentration of antagonist, allowed an estimate of pA2, i.e. the negative log of the concentration of antagonist which shifts the control histamine concentration-response curve 2X to the right.
# [2] = human, in vivo; cited from earlier work
# [3] = antihistamines now in use; causes dryness of mouth, blurred vision and tachycardia; cited from earlier work
SMILES,Kb [1] [nM],antihistamine activity (in words) [1],sedation and drowsiness [2],anticholinergic activity [3]
"COc1ccc(CN(CCN(C)C)c2cccc(/C=C/C(=O)O)n2)cc1 [Compound A, (E)-3-(6-(N-(2-dimethylaminoethyl)-4-methoxybenzylamino)-2-pyridyl)acrylicacid]",251,particularly active,,
"COc1ccc(CN(CCN(C)C)c2ccc(C(=O)O)cn2)cc1 [Compound B, 6-(N-(2-dimethylaminoethyl)-4-methoxybenzylamino) nicotinic acid]",1260,particularly active,,
"COc1ccc(CN(CCN(C)C)c2ccccn2)cc1 [Pyrilamine, N,N-dimethyl-N'-(4-methoxyphenylmethyl)-N'-2-pyridyl-1,2-ethanediamine]",,,produces sedation and drowsiness in varying degrees in most patients,varying degrees of anticholinergic activity
CC(CN1c2ccccc2Sc2ccccc21)N(C)C (centres unmarked) [promethazine],,,,varying degrees of anticholinergic activity
Cc1ccc(/C(=C\CN2CCCC2)c2ccccn2)cc1 [triprolidine],,,,varying degrees of anticholinergic activity
